Laboratory results: US20260071117A1, “FUNABLE FLUORESCENT COMPOUNDS AND USES THEREOF” (Arizona Board of Regents on Behalf of the University of …, priority 2021, published 2026)

Assay: Absorbance and fluorescence measurements (excitation maximum, emission maximum, quantum yield vs coumarin 151)
Format: physicochemical
Set-up: key to Quantum Yield: fraction relative to coumarin 151 in ethanol standard
Conditions: for λex: absorbance/excitation maximum; for λem: emission maximum
From the text: All reagents and solvents were acquired from commercially available suppliers and used without further purification. Methanol(dried on molecular sieves-Acroseal) was obtained from Acros. […] 1H and 13C NMR spectra were obtained on a Bruker NMR spectrometer at 500/400 and 125/100 MHz respectively. The data is reported as follows: chemical shift in ppm (δ), multiplicity (s=singlet, d=doublet, dd=doublet of doublets, t=triplet, dt=doublet of triplets, td=triplet of doublets, q=quartet, p=pentet, m=multiplet). Coupling constants are reported in Hertz (Hz) and were automatically generated using known NMR analyzer software (MestReNova), these were then subsequently curated. High-resolution mass spectra were obtained using the positive ESI method for all the compounds, obtained in an Ion Cyclotron Resonance (ICR) spectrometer. Absorbance spectra were obtained using an Agilent 8453 UV-visible spectroscopy system. Fluorescence was measured on a Varian (Agilent) Cary Eclipse Fluorimeter. Quantum yield measurements were calculated and reported using coumarin 151 in ethanol as a standard.^1 Fluorescence scans were obtained using a 2.5 mm slit width unless otherwise noted.
The fluorescence was also measured in different solvents to examine the solvent effects.

[1] = coumarin 151 in ethanol as standard, 2.5 mm slit width, measurements run with methanol
[2] = 2.5 mm slit width, measurements run with methanol

Structure (SMILES)	λex (measurements run with methanol) [nm]	Quantum Yield [1]	λem [2] [nm]	fluorescence (observation in words)	Quantum Yield (tetracyclic indolizines of Example I)
Nc1c(-c2ccc(Oc3ccccc3)cc2)nc2ccccn12 [Compound 10m, 2-(4-phenoxyphenyl)imidazo[1,2-a]pyridin-3-amine]	343	0.40	474		
Nc1c(-c2cccc(Oc3ccccc3)c2)nc2ccccn12 [Compound 10n, 2-(3-phenoxyphenyl)imidazo[1,2-a]pyridin-3-amine]	339	0.40	474		
Cn1cccc1-c1nc2ccccn2c1N [Compound 10o, 2-(1-methyl-1H-pyrrol-2-yl)imidazo[1,2-a]pyridin-3-amine]	349	0.20	478		
Nc1c(-c2ccc(N(c3ccccc3)c3ccccc3)cc2)nc2ccccn12 [Compound 10p, 2-(4-(diphenylamino)phenyl)imidazo[1,2-a]pyridin-3-amine]	353	0.34	471		
CCN(CC)c1ccc(-c2nc3ccccn3c2N)cc1 [Compound 10q, 2-(4-(diethylamino)phenyl)imidazo[1,2-a]pyridin-3-amine]	341	0.12	486		
COc1cc(OC)cc(-c2nc3ncccn3c2N)c1 [Compound 10r, 2-(3,5-dimethoxyphenyl)imidazo[1,2-a]pyrimidin-3-amine]	371	0.02	553		
COc1cc(OC)cc(-c2nc3cnccn3c2N)c1 [Compound 10s, 2-(3,5-dimethoxyphenyl)imidazo[1,2-a]pyrazin-3-amine]	382	0.35	477		
COC(=O)c1ccn2c(N)c(-c3cc(OC)cc(OC)c3)nc2c1 [Compound 10v, methyl 3-amino-2-(3,5-dimethoxyphenyl)imidazo[1,2-a]pyridine-7-carboxylate]	403	0.42	514		
COC(=O)c1ccc2nc(-c3cc(OC)cc(OC)c3)c(N)n2c1 [Compound 10w, methyl 3-amino-2-(3,5-dimethoxyphenyl)imidazo[1,2-a]pyridine-6-carboxylate]	343	0.02	473		
COC(=O)c1cccc2nc(-c3cc(OC)cc(OC)c3)c(N)n12 [Compound 10x, methyl 3-amino-2-(3,5-dimethoxyphenyl)imidazo[1,2-a]pyridine-5-carboxylate]	400			quenched fluorescence altogether	
COc1cc(OC)cc(-c2nc3cc(Br)ccn3c2N)c1 [Compound 10y, 7-bromo-2-(3,5-dimethoxyphenyl)imidazo[1,2-a]pyridin-3-amine]	349	0.01	487		
COc1cccc(/C=N/c2c(-c3cccc(OC)c3)c(C#N)c3ccccn23)c1 [Compound 14a, (E)-3-((3-methoxybenzylidene)amino)-2-(3-methoxyphenyl)indolizine-1-carbonitrile]				quenched fluorescence	
COc1cccc(-c2nc3c(nc4ccccn43)c3c(OC)c(OC)ccc23)c1OC [Compound 16b, 5-(2,3-dimethoxyphenyl)-1,2-dimethoxypyrido[2′,1′:2,3]imidazo[4,5-c]isoquinoline]	366	0.34	418		
COc1cc(-c2nc3c(nc4ccccn43)c3cc(OC)c(OC)c(OC)c23)cc(OC)c1OC [Compound 16c, 2,3,4-trimethoxy-5-(3,4,5-trimethoxyphenyl)pyrido[2′,1′:2,3]imidazo[4,5-c]isoquinoline]	367	0.01	428		
COc1cc(OC)cc(-c2nc3c(nc4ccccn43)c3cc(OC)cc(OC)c23)c1 [Compound 16d, 5-(3,5-dimethoxyphenyl)-2,4-dimethoxypyrido[2′,1′:2,3]imidazo[4,5-c]isoquinoline]	364	0.01	415		
c1ccc2cc(-c3nc4c(nc5ccccn54)c4ccc5ccccc5c34)ccc2c1 [Compound 16e, 7-(naphthalen-2-yl)benzo[h]pyrido[2′,1′:2,3]imidazo[4,5-c]isoquinoline]	389	0.01	442		
COc1cc(-c2nc3c(nc4cccnn43)c3cc(OC)c(OC)c(OC)c23)cc(OC)c1OC [Compound 16f, 2,3,4-trimethoxy-5-(3,4,5-trimethoxyphenyl)pyridazino[6′,1′:2,3]imidazo[4,5-c]isoquinoline]	295	0.07	488		
COc1cc(-c2nc3c(nc4ncccn43)c3cc(OC)c(OC)c(OC)c23)cc(OC)c1OC [Compound 16g, 2,3,4-trimethoxy-5-(3,4,5-trimethoxyphenyl)pyrimido[2′,1′:2,3]imidazo[4,5-c]isoquinoline]	296	0.07	510		
COc1cc(-c2nc3c(nc4cccc(Br)n43)c3cc(OC)c(OC)c(OC)c23)cc(OC)c1OC [Compound 16h, 8-bromo-2,3,4-trimethoxy-5-(3,4,5-trimethoxyphenyl)pyrido[2′,1′:2,3]imidazo[4,5-c]isoquinoline]	265	0.002	553		
COc1cc(OC)c2c(-c3ccccc3)nc3c(nc4ccccn43)c2c1 [Compound 18a, 2,4-dimethoxy-5-phenylpyrido[2′,1′:2,3]imidazo[4,5-c]isoquinoline]	365	0.01	422	not observable by the naked eye	0.01
COc1cc(OC)c2c(-c3ccc([N+](=O)[O-])cc3)nc3c(nc4ccccn43)c2c1 [Compound 18b, 2,4-dimethoxy-5-(4-nitrophenyl)pyrido[2′,1′:2,3]imidazo[4,5-c]isoquinoline]	370			quenched the fluorescence fully	
COC(=O)c1ccn2c(c1)nc1c3cc(OC)cc(OC)c3c(/C=C/c3ccccc3)nc12 [Compound 18c, methyl (E)-2,4-dimethoxy-5-styrylpyrido[2′,1′:2,3]imidazo[4,5-c]isoquinoline-10-carboxylate]	325	0.19	510		
Cc1nn2c(NC(C)(C)C)c(-c3ccccc3)nc2nc1/C=C/c1ccccc1 [Compound 42, (E)-N-(tert-butyl)-2-methyl-6-phenyl-3-styrylimidazo[1,2-b][1,2,4]triazin-7-amine]	453	0.11	636		
Cc1nn2c(NC(C)(C)C)c(-c3ccc4ccccc4c3)nc2nc1/C=C/c1ccc2ccccc2c1 [Compound 43, (E)-N-(tert-butyl)-2-methyl-6-(naphthalen-2-yl)-3-(2-(naphthalen-2-yl)vinyl)imidazo[1,2-b][1,2,4]triazin-7-amine]	485	0.22	643		
COc1ccc(/C=C/c2nc3nc(-c4ccc(OC)cc4)c(NC(C)(C)C)n3nc2C)cc1 [Compound 44, (E)-N-(tert-butyl)-6-(4-methoxyphenyl)-3-(4-methoxystyryl)-2-methylimidazo[1,2-b][1,2,4]triazin-7-amine]	486	0.27	643		
Cc1nn2c(NC(C)(C)C)c(-c3ccc([N+](=O)[O-])cc3)nc2nc1/C=C/c1ccc([N+](=O)[O-])cc1 [Compound 45, (E)-N-(tert-butyl)-2-methyl-6-(4-nitrophenyl)-3-(4-nitrostyryl)imidazo[1,2-b][1,2,4]triazin-7-amine]	505	0.11	655		
COc1cc(/C=C/c2nc3nc(-c4cc(OC)cc(OC)c4)c(NC(C)(C)C)n3nc2C)cc(OC)c1 [Compound 46, (E)-N-(tert-butyl)-6-(3,5-dimethoxyphenyl)-3-(3,5-dimethoxystyryl)-2-methylimidazo[1,2-b][1,2,4]triazin-7-amine]	461	0.19	638		
Cc1nn2c(NC(C)(C)C)c(-c3cccs3)nc2nc1/C=C/c1cccs1 [Compound 47, (E)-N-(tert-butyl)-2-methyl-6-(thiophen-2-yl)-3-(2-(thiophen-2-yl)vinyl)imidazo[1,2-b][1,2,4]triazin-7-amine]	513	0.33	647		
COc1cc(/C=C/c2nc3nc(-c4cc(OC)c(OC)c(OC)c4)c(NC(C)(C)C)n3nc2C)cc(OC)c1OC [Compound 48, (E)-N-(tert-butyl)-2-methyl-6-(3,4,5-trimethoxyphenyl)-3-(3,4,5-trimethoxystyryl)imidazo[1,2-b][1,2,4]triazin-7-amine]	506	0.28	633		
CCN(CC)c1ccc(/C=C/c2nc3nc(-c4ccc(N(CC)CC)cc4)c(NC(C)(C)C)n3nc2C)cc1 [Compound 49, (E)-N-(tert-butyl)-6-(4-(diethylamino)phenyl)-3-(4-(diethylamino)styryl)-2-methylimidazo[1,2-b][1,2,4]triazin-7-amine]	566	0.45	653		
